This note sets out measurements from publication PMC11054271, “ABCG2 Transports the Flukicide Nitroxynil and Affects Its Biodistribution and Secretion into Milk” (Pharmaceutics, 2024).

One data set addresses T1, bovine ABCG2 (Bos taurus, UniProt Q4GZT4).
T1 construct: expressed in transfected cells; host or cells: MDCK-II (canine kidney) subclone generated by the authors' group
T1 sequence (Q4GZT4 1-655): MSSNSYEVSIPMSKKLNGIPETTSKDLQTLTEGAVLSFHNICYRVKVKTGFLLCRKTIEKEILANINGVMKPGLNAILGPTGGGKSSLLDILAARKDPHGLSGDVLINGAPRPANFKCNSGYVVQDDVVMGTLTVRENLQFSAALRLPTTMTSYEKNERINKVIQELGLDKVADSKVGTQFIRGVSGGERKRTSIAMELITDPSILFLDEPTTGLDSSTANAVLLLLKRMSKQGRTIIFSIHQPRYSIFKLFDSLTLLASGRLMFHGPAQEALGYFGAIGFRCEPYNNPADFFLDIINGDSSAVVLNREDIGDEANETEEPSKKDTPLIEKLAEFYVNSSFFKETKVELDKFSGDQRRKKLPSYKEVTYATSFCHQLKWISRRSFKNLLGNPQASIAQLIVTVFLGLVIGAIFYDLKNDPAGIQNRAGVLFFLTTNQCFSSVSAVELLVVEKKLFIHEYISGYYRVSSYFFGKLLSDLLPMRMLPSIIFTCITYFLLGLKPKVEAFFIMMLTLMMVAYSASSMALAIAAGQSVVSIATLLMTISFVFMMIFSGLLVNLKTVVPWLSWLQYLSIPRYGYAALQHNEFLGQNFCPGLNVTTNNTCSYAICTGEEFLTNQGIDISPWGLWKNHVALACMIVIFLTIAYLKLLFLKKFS
The experiment in a line: Transepithelial transport assay in MDCK-II cells transduced with bovine ABCG2. It counts as in vitro ADME. The conditions noted are these: cattle, MDCK-II bABCG2, nitroxynil 10 µM, no Ko143, read-out: Relative efflux transport ratio (BA/AB). How it is done:
(§1) Parental Madin–Darby canine kidney epithelial cells (MDCK–II) and their subclones transduced with murine (mAbcg2) and human (hABCG2) variants of ABCG2 were kindly provided by Dr. A. H. Schinkel (Netherlands Cancer Institute). Transduced MDCK–II cells with the ovine (oABCG2) and bovine (bABCG2) variants were previously generated by our group. Cells were cultured as described elsewhere.
(§2) Transepithelial transport assays were carried out as previously described with minor variations, using Hanks’ balanced salt solution (Sigma-Aldrich) supplemented with HEPES (25 mM), with or without Ko143 (1 μM), and containing or not nitroxynil 10 μM. […] At the end of the experiment, confluence of the monolayer was measured with the previously described Lucifer Yellow permeability test, with minor modifications. The appearance of nitroxynil in the opposite side of the well was measured by HPLC as later described. Active transport was expressed as relative efflux transport ratio (apically directed transport percentage divided by the basolaterally directed translocation percentage) at 4 h and referred to the initial concentration. […]
(§3) Waters 2695 separation module and Waters 2998 UV photodiode array detector set at 270 nm were used for samples analysis. […] Limit of detection (LOD) and quantification (LOQ) were calculated as previously described. […]

Data set [1] is described as follows: Transepithelial transport assay in parental MDCK-II monolayers. It is filed as in vitro ADME, canine. The settings on record: dog, nitroxynil 10 µM, no Ko143, read-out: Relative efflux transport ratio (BA/AB). How it is done:
as §1, §2, §3

In the case of `N#Cc1cc(I)c(O)c([N+](=O)[O-])c1` [nitroxynil], the efflux ratio at 4 h, 10 µM at bovine ABCG2 was determined as 3.25 ± 0.14; in data set [1] it was 1.04 ± 0.03.
